Measured values: patent US10766940B2, “Brain penetrant amylin receptor based peptides for Alzheimer's disease” (The Governors of the University of Alberta, priority 2016, dated 2020)
Residues, ends and D or L forms follow the SMILES beside them.

Experiments:
[1] = test system: heterozygous CTR knockdown mice (50% depletion of amylin receptors); assay: R5 brain uptake in heterozygous CTR knockdown mice; assay type: in vivo, mouse; conditions: Wt vs CTR knockdown mice, ip, 2 hr
Protocol: Mice were injected with a single dose and then sacrificed, and the brains were extracted after 2 hours from injection. Fluorescence in brains was quantified as previously described.

[2] = test system: APP, CTR, RAMP3, synapsin 1, synaptophysin, Iba1 in TgCRND8 mice brains; assay: Western blot of brain homogenates after 5 months icv AC253; assay type: in vivo, mouse
Protocol: (§1) A microcannula was stereotaxically inserted into the right cerebral ventricle (0.12 right lateral and 0.06 posterior to bregma, 3 mm deep) of isofluorane-anesthetized mice, and connected to an osmotic pump (Alzet; model 2004) implanted subcutaneously on the back of the mouse. The pump infused a solution of either aCSF or AC253 in aCSF into the ventricle at a rate of […] to yield an estimated concentration of 1 μM AC253 in the mouse CSF at equilibrium based upon the known CSF dynamics in the mouse brain (Di Pardo et al., 2012). The pump reservoir was replaced every 28 days for a total of 5-6 months. Animals were monitored on a daily basis for signs of treatment-related toxicity, such as poor grooming, lethargy, loss of bodyweight, and abnormal behavior. After completion of medication and behavioral tests, all mice were killed with an overdose of isoflourane anesthetic, perfused transcardially with saline, and the brains were harvested. The left hemisphere per animal was frozen for biochemical analysis (Western blot, ELISA), and the right hemisphere retained for histological analysis.
Frozen brain tissues were homogenized in cold RIPA buffer with protease inhibitors and proteins were isolated and measured using BCA assay (BioRad, Mississauga, ON, Canada). Proteins were loaded at 50 μg per lane on a 12% polyacrylamide gel for CTR, RAMP3, NeuN, synapsin1, phospho-synapsin, and Iba1, or 4-20% polyacrylamide gradient gel (BioRad) for APP. Proteins were transferred to nitrocellulose membrane, and blocked with LiCOR blocking buffer. Blots were incubated with primary antibodies overnight at 4° C. on a shaker. Primary antibody used for CTR (1:1000 rabbit; Thermo Scientific), RAMP3 (1:1000 rabbit; Santa Cruz Biotechnology), 6E10 for APP (1:5000 mouse; 6E10; Covance), NeuN (1:1000, rabbit, Abcam), synapsin-1 (1:1000 rabbit, Abcam), synaptophysin (1:1000, rabbit, Abcam), phosphosynapsin (1:1000, rabbit, Abcam), Iba1 (1:1000, rabbit, Wako), β-tubulin (1:1000, rabbit, Cell Signaling Technology, Inc.) and β-actin (1:10000 mouse, Sigma-Aldrich). IRDye 800CW goat anti-rabbit and IRDye 680CW goat anti-mouse were used as secondary antibodies. Blots were imaged using LiCor Odyssey image system.

[3] = test system: Aβ plaques in TgCRND8 mice brains; assay: Immunofluorescent-histological staining of Aβ plaques (6E10); assay type: in vivo, mouse; conditions: Tg AC253 vs Tg CSF
Protocol: as §1, with “After completion of medication and behavioral tests, all mice were killed with an overdose of isoflourane anesthetic, perfused transcardially with saline, and the brains were harvested. The left hemisphere per animal was frozen for biochemical analysis (Western blot, ELISA), and the right hemisphere retained for histological analysis.” left out
For immunostaining, […] thick brain sections were cut using a Cryostat (Leica CM1850), fixed with 4% paraformaldehyde in PBS, permeabilized using 0.3% Triton X-100 and stained with Aβ (6E10), Iba1, and CTR antibody, followed by fluorescent secondary antibody (goat anti mouse Alexa Fluor-546 and donkey anti rabbit Alexa Fluor-488) and mounted in DAPI mounting media. Fluorescent microscopy images were acquired with an Axioplan-2 fluorescence microscope with AxioVision software (Carl Zeiss Ltd., Toronto, ON, Canada). Amyloid plaque size and area were analyzed with Image J.

[4] = test system: TgCRND8 and wild-type mice; assay: Daily monitoring for treatment-related toxicity during chronic icv infusion; assay type: in vivo, mouse; conditions: chronic icv infusion 5-6 months
Protocol: as §1

TgCRND8 AD mouse model = assay: Morris Water Maze, chronic icv infusion of AC253; assay type: in vivo
Protocol: Age-matched, wild-type littermate (C57BL/6 background) male or female mice were used. […] Heterozygous CTR (het CTR) mice (C57BL/6J background) with a 50% deletion of CTR were obtained from Drs. R. A. Davey and J. D. Zajac (Department of Medicine, Austin Health, University of Melbourne, Heidelberg, Victoria, Australia). Mice were housed individually under standard laboratory conditions (12/12-h light/dark cycle, lights on at 0600 h) with a room temperature of 21° C. Water and food were available ad libitum unless otherwise indicated. All tests were performed during the light phase between 0900 and 1600 h in accordance with institutional guidelines. The mice were 3 months old at the onset of testing.
as §1, with “After completion of medication and behavioral tests, all mice were killed with an overdose of isoflourane anesthetic, perfused transcardially with saline, and the brains were harvested. The left hemisphere per animal was frozen for biochemical analysis (Western blot, ELISA), and the right hemisphere retained for histological analysis.” left out
The MWM apparatus consisted of a 2 m circular blue plastic pool filled with water (24-25° C.), which was rendered opaque by the addition of non-toxic white paint. […] The behavior of a mouse was recorded by a video camera connected to a video tracking system (HVS Image 2100, HVS Image, Buckingham, UK).
The pool was surrounded by a white curtain, and a mouse was released facing the wall at points (N, E, S, W) which were chosen semi-randomly. […] Memory was evaluated in probe trial, administered on day 8 as the first trial of the day. […] Memory for the platform location was expressed as the percent of time spent in TQ.

Q: For `CC(C)C[C@H](NC(=O)[C@H](CCC(=O)O)NC(=O)[C@H](CCC(N)=O)NC(=O)[C@@H](N)CO)C(=O)N[C@@H](Cc1c[nH]cn1)C(=O)N[C@@H](CCCNC(=N)N)C(=O)N[C@@H](CC(C)C)C(=O)N[C@@H](CCC(N)=O)C(=O)N[C@H](C(=O)N[C@@H](Cc1ccc(O)cc1)C(=O)N1CCC[C@H]1C(=O)N[C@@H](CCCNC(=N)N)C(N)=O)[C@@H](C)O` [R5] (H-SQELHRLQTYPR-NH2; N-terminus assumed), which “brain uptake in relation to amylin receptor expression” value [1] is on record?
A: proportional to the degree of amylin receptor expression

Q: With `CC(C)C[C@H](NC(=O)[C@H](CCCNC(=N)N)NC(=O)CNC(=O)[C@@H](N)CC(C)C)C(=O)N[C@@H](CO)C(=O)N[C@@H](CCC(N)=O)C(=O)N[C@@H](CCC(=O)O)C(=O)N[C@@H](CC(C)C)C(=O)N[C@@H](Cc1c[nH]cn1)C(=O)N[C@@H](CCCNC(=N)N)C(=O)N[C@@H](CC(C)C)C(=O)N[C@@H](CCC(N)=O)C(=O)N[C@H](C(=O)N[C@@H](Cc1ccc(O)cc1)C(=O)N1CCC[C@H]1C(=O)N[C@@H](CCCNC(=N)N)C(=O)N[C@H](C(=O)N[C@@H](CC(N)=O)C(=O)N[C@H](C(=O)NCC(=O)N[C@@H](CO)C(=O)N[C@@H](CC(N)=O)C(=O)N[C@H](C(=O)N[C@@H](Cc1ccc(O)cc1)C(N)=O)[C@@H](C)O)[C@@H](C)O)[C@@H](C)O)[C@@H](C)O` [AC253] as the compound, how does the “amylin receptor (CTR, RAMP3 proteins) expression levels in the brain” value ([2]; Tg AC253 vs Tg CSF) read?
A: no noticeable difference

Q: What about the “increase in expression level of synapsin 1” value ([2]; Tg AC253 vs Tg CSF controls) of the same compound?
A: 40%

Q: And the “increase in expression level of synaptophysin” value ([2]; Tg AC253 vs Tg CSF controls)?
A: 30%

Q: And the “APP expression (Western blot)” value ([2]; Tg AC253 vs Tg CSF, 5 months icv)?
A: no significant difference

Q: What about the “reduction of expression levels of Iba-1 (microglial marker)” value ([2]; Tg-AC253 vs Tg-CSF) of the same compound?
A: 50%

Q: What about the “number of Aβ plaques, total area of Aβ-positive profiles” value [3] of the same compound?
A: did not reveal significant difference

Q: What about the “signs of off-target effects or changes in body weight” value [4] of the same compound?
A: none of the mice receiving AC253 showed any signs of off-target effects

Q: What about the “latencies to locate the hidden platform (MWM)” value (TgCRND8 AD mouse model; TgCRND8 mice at 8 months of age, after 5 months of icv treatment, vs littermates receiving CSF) of the same compound?
A: marked improvement in latencies to locate the hidden platform

Q: And the “memory in probe trials for location of the target quadrant” value (TgCRND8 AD mouse model; TgCRND8 mice, 8 months of age)?
A: enhanced and persistent memory in probe trials

Q: And the “memory deficits in MWM, Wt controls” value (TgCRND8 AD mouse model; wild-type littermate controls, icv AC253 or CSF, 8 months of age)?
A: no memory deficits
